Patent US8143257B2, “Substituted phenols as active agents inhibiting VEGF production” (PTC Therapeutics, Inc., priority 2004, dated 2012)

System: hypoxia-inducible endogenous VEGF expression
Assay: Assay to evaluate effect on hypoxia-inducible endogenous VEGF expression (VEGF ELISA, HeLa cells)
Type: cell-based
Conditions: HeLa cells cultured 24-48 hours under hypoxic conditions (1% O2, 5% CO2); VEGF in conditioned media by ELISA; read-out: ELISA EC50 (effective concentration required to lower the amount of VEGF translation by 50%)
Procedure: Assay to Evaluate Effect on Hypoxia-Inducible Endogenous VEGF Expression
The ability of the compounds of the invention to modulate hypoxia-inducible endogenous VEGF expression is analyzed as follows. VEGF protein levels are monitored by an ELISA assay (R&D Systems). Briefly, HeLa cells are cultured for 24-48 hours under hypoxic conditions (1% O2, 5% CO2, balanced with nitrogen) in the presence or absence of a compound of the invention. The conditioned media is then assayed by ELISA, and the concentration of VEGF is calculated from the standard ELISA curve of each assay.
A dose-response analysis is performed using the ELISA assay and conditions described above. A series of, e.g., seven different concentrations are analyzed. In parallel, a dose-response cytotoxicity assay is performed using Cell Titer Glo (Promega) under the same conditions as the ELISA to ensure that the inhibition of VEGF expression is not due to the cytotoxicity. Dose-response curves are plotted using percentage inhibition versus concentration of the compound, and EC50 and CC50 values are generated for each compound with the maximal inhibition set as 100% and the minimal inhibition as 0%.
The most preferred compounds of the invention are those with μM values of 3 or less.

Compound | EC50 [µM]
O=C(Oc1ccccc1Br)N1CCCC1 [Pyrrolidine-1-carboxylic acid 2-bromo-phenyl ester] | > 30
Cc1ccc2cc(OC(=O)N3CCCC3)ccc2n1 [Pyrrolidine-1-carboxylic acid 2-methyl-quinolin-6-yl ester] | > 30

Same assay, conditions: Homo sapiens, HeLa, read-out: ELISA EC50 (effective concentration required to lower the amount of VEGF translation by 50%)

Compound | EC50 [µM]
CN(C)C(=O)Oc1ccc2cc(Br)ccc2c1 [Dimethyl-carbamic acid 6-bromo-naphthalen-2-yl ester] | > 10
CN(C(=O)Oc1ccc2cc(Br)ccc2c1)c1ccccc1 [Methyl-phenyl-carbamic acid 6-bromo-naphthalen-2-yl ester] | > 10
CN(C(=O)Oc1ccc2ccccc2c1)c1ccccc1 [Methyl-phenyl-carbamic acid naphthalen-2-yl ester] | > 10

Same assay, conditions: Homo sapiens; HeLa cells cultured 24-48 hours under hypoxic conditions (1% O2, 5% CO2); VEGF in conditioned media by ELISA; read-out: ELISA EC50 (effective concentration required to lower the amount of VEGF translation by 50%)

Compound | EC50 [µM]
O=C(Oc1ccc2cc(Br)ccc2c1Br)N1CCOCC1 [Morpholine-4-carboxylic acid 1,6-dibromo-naphthalen-2-yl ester] | > 30
O=C(Oc1ccc2ccccc2c1Br)N1CCOCC1 [Morpholine-4-carboxylic acid 1-bromo-naphthalen-2-yl ester] | 0.999
O=C(Oc1ccc2cc(Br)ccc2c1)N1CCOCC1 [Morpholine-4-carboxylic acid 6-bromo-naphthalen-2-yl ester] | > 10
CS(=O)(=O)Nc1c(O)ccc2ccccc12 [N-(2-Hydroxy-naphthalen-1-yl)-methanesulfonamide] | > 5
O=C(Oc1ccc2cc(Br)ccc2c1Br)N1CCCCC1 [Piperidine-1-carboxylic acid 1,6-dibromo-naphthalen-2-yl ester] | > 30
O=C(Oc1ccc2ccccc2c1Br)N1CCCCC1 [Piperidine-1-carboxylic acid 1-bromo-naphthalen-2-yl ester] | 0.27
CS(=O)(=O)Nc1c(OC(=O)N2CCCCC2)ccc2ccccc12 [Piperidine-1-carboxylic acid 1-methanesulfonylamino-naphthalen-2-yl ester] | > 5
O=C(Oc1cc(Cl)c(Cl)cc1Cl)N1CCCCC1 [Piperidine-1-carboxylic acid 2,4,5-trichloro-phenyl ester] | 18.2
O=C(Oc1c(Cl)cc(Cl)cc1Cl)N1CCCCC1 [Piperidine-1-carboxylic acid 2,4,6-trichloro-phenyl ester] | > 30
O=C(Oc1ccccc1Br)N1CCCCC1 [Piperidine-1-carboxylic acid 2-bromo-phenyl ester] | > 30
Cc1ccc2cc(OC(=O)N3CCCCC3)ccc2n1 [Piperidine-1-carboxylic acid 2-methyl-quinolin-6-yl ester] | > 30
O=C(Oc1ncc2ccccc2c1Cl)N1CCCCC1 [Piperidine-1-carboxylic acid 4-chloro-isoquinolin-3-yl ester] | 2.22
O=C(Oc1ccc2cc(Br)ccc2c1)N1CCCCC1 [Piperidine-1-carboxylic acid 6-bromo-naphthalen-2-yl ester] | > 10
O=C(Nc1ccc2ccccc2c1Br)N1CCCCC1 [Piperidine-1-carboxylic acid (1-bromo-naphthalen-2-yl)-amide] | > 10
O=C(Nc1ccc2ccccc2c1Cl)N1CCCCC1 [Piperidine-1-carboxylic acid (1-chloro-naphthalen-2-yl)-amide] | > 10
O=C(Oc1cc2ccccc2cn1)N1CCCCC1 [Piperidine-1-carboxylic acid isoquinolin-3-yl ester] | > 30
O=C(Oc1ccc2ccccc2c1)N1CCCCC1 [Piperidine-1-carboxylic acid naphthalen-2-yl ester] | > 10
O=C(Nc1ccc2ccccc2c1)N1CCCCC1 [Piperidine-1-carboxylic acid naphthalen-2-ylamide] | > 10
CC(=O)c1c(OC(=O)N2CCCC2)ccc2ccccc12 [Pyrrolidine-1-carboxylic acid 1-acetyl-naphthalen-2-yl ester] | > 30
O=C(Oc1cc(Cl)c(Cl)cc1Cl)N1CCCC1 [Pyrrolidine-1-carboxylic acid 2,4,5-trichloro-phenyl ester] | > 30
O=C(Oc1c(Cl)cc(Cl)cc1Cl)N1CCCC1 [Pyrrolidine-1-carboxylic acid 2,4,6-trichloro-phenyl ester] | 23
Cc1ccc(OC(=O)N2CCCC2)c(Br)c1 [Pyrrolidine-1-carboxylic acid 2-bromo-4-methyl-phenyl ester] | > 30
O=C(Oc1cc2ccccc2cn1)N1CCCC1 [Pyrrolidine-1-carboxylic acid isoquinolin-3-yl ester] | > 30
